Assay [1] addresses T1, Cholesteryl ester transfer protein (Homo sapiens) (UniProt P11597).
T1 sequence (whole entry): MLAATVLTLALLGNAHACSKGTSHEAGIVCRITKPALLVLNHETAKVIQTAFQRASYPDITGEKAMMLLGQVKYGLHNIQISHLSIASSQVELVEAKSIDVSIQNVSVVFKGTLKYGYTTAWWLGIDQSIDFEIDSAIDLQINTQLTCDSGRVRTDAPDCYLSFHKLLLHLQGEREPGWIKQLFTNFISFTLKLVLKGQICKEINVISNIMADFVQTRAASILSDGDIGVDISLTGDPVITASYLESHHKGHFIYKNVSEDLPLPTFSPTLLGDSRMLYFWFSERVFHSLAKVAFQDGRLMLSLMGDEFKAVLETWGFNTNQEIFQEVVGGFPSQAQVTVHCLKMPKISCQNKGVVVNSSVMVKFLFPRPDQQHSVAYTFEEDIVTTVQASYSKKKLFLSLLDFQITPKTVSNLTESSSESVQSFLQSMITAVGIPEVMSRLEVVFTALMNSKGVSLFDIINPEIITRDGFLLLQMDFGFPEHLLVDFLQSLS
The assay can be described thus: Inhibition of CETP (unknown origin) at 500 uM incubated for 0.5 hrs by double illuminometer/fluorescence counter method relative to control.

In assay [2] the target is Phospholipid transfer protein (Homo sapiens) (UniProt P55058). The assay can be described thus: Inhibition of PLTP in plasma (unknown origin) assessed as reduction in phospholipid transfer from phospholipid liposome to HDL at 250 uM measured after 1 hr relative to control. The class given is cell-free.
The target is the same in assay [3]. The assay can be described thus: Inhibition of PLTP in plasma (unknown origin) assessed as reduction in phospholipid transfer from phospholipid liposome to HDL at 150 uM measured after 1 hr relative to control. In kind it is cell-free.
The target is the same in assay [4]. The assay can be described thus: Inhibition of PLTP in plasma (unknown origin) assessed as reduction in phospholipid transfer from phospholipid liposome to HDL at 500 uM measured after 1 hr relative to control. In kind it is cell-free.

The text below walks through data of ChEMBL document CHEMBL4418264, “2,4,5-trisubstituted thiazole compounds,preparation methods,pharmaceutical compositions and medical uses thereof” (2014).

Phospholipid transfer protein (Homo sapiens), sequence (P55058 whole entry): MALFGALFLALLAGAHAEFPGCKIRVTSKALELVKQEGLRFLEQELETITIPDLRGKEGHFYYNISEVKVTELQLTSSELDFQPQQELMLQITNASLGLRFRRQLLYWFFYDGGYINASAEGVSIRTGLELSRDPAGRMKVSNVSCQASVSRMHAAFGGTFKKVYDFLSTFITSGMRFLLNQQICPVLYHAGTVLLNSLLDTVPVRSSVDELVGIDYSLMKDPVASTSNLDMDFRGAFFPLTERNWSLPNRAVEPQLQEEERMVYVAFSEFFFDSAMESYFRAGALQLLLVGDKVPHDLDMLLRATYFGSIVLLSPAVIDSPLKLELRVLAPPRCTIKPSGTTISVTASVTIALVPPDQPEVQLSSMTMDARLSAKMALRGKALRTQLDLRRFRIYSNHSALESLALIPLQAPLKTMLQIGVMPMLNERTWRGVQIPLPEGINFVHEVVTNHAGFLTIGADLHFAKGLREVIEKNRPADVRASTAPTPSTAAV

Turning to `COc1ccc(-c2nc(N)sc2Cc2ccc(F)cc2)cc1`, the inhibition in assay [1] worked out at 52.8%; in assay [2], 11.5%.
With `Cc1sc(NC(=O)c2cc(O)c(O)c(O)c2)nc1-c1ccc(O)cc1`, the inhibition in assay [1] is 85.9%; in assay [2], 10.7%.
For `CCCCc1sc(N)nc1-c1ccc(OC)cc1`, the figures for the inhibition in assay [1] and in assay [2] were 65.4% and 15.3%, respectively.
Turning to `O=C(Nc1nc(-c2ccc(O)cc2)c(CCc2ccccc2)s1)c1ccc(O)c(O)c1`, the figures for the inhibition in assay [1] and in assay [2] were 0% and 97%, respectively.
On to `O=C(Nc1nc(-c2ccc(O)cc2)c(Cc2ccc([N+](=O)[O-])cc2)s1)c1ccc(O)c(O)c1`, for which the inhibition turned out to be 30.4% in assay [1] and 67.6% in assay [2].
As for `O=C(Nc1nc(-c2ccc(O)cc2)c(Cc2ccccc2)s1)c1ccc(O)cc1O`, the figures for the inhibition in assay [1] and in assay [3] were 88% and 11.5%, respectively.
In the case of `CCCCc1sc(NC(=O)c2ccc(O)c(O)c2)nc1-c1ccc(O)cc1`, the figures for the inhibition in assay [1] and in assay [2] were 0% and 93.4%, respectively.
Turning to `COc1ccc(-c2nc(N3CCNCC3)sc2Cc2ccccc2)cc1`, the inhibition in assay [1] worked out at 74.5%; in assay [4], 100%.
On to `O=C(Nc1nc(-c2ccc(O)cc2)c(Cc2ccc(F)cc2)s1)c1ccc(O)c(O)c1`, for which the inhibition in assay [1] worked out at 9.2%; in assay [2] it was 73.2%.
Taken in the same sequence, the figures for `CCCCc1sc(NC(=O)c2cc(O)c(O)c(O)c2)nc1-c1ccc(O)cc1` were 27.3% and 100%.
`O=C(Nc1nc(-c2ccc(O)cc2)c(Cc2ccccc2)s1)c1cc(O)c(O)c(O)c1`: the inhibition was found to be 44.1% in assay [1] and 89.4% in assay [3].
Regarding `Cc1sc(NC(=O)c2ccc(O)c(O)c2)nc1-c1ccc(O)cc1`, the inhibition came out at 58.7% in assay [1] and 71.9% in assay [2].
For `O=C(Nc1nc(-c2ccc(O)cc2)c(CC2CCCCC2)s1)c1cc(O)c(O)c(O)c1`, the inhibition worked out at 20.9% in assay [1] and 100% in assay [2].
Take `COc1ccc(-c2nc(N)sc2CCc2ccccc2)cc1`: the inhibition turned out to be 75.8% in assay [1] and 24% in assay [2].
Regarding `COc1ccc(-c2nc(N3CCOCC3)sc2Cc2ccccc2)cc1`, the inhibition in assay [1] was determined as 91.6%; in assay [4] it was 61%.
For the compound `O=C(Nc1nc(-c2ccccc2)c(Cc2ccc([N+](=O)[O-])cc2)s1)c1ccc(O)c(O)c1`, the values for the inhibition in assay [1] and in assay [2] were 0% and 100%, respectively.
Regarding `O=C(Nc1nc(-c2ccc(O)cc2)c(Cc2ccccc2)s1)c1ccc(O)c(O)c1`, the values for the inhibition in assay [1] and in assay [2] were 19.4% and 79.8%, respectively.
`COc1ccc(C(=O)Nc2nc(-c3ccc(O)cc3)c(Cc3ccccc3)s2)cc1`: the inhibition in assay [1] worked out at 71.6%; in assay [3] it was 0%.
With `O=C(Nc1nc(-c2ccc(O)cc2)c(CC2CCCCC2)s1)c1ccc(O)c(O)c1`, the inhibition in assay [1] was 6%; in assay [3] it was 81.6%.
For `O=C(CCc1ccc(O)c(O)c1)Nc1nc(-c2ccc(O)cc2)c(Cc2ccccc2)s1`, the inhibition was 25.3% in assay [1] and 75.7% in assay [3].
For the compound `COc1ccc(-c2nc(N)sc2CC2CCCCC2)cc1`, the inhibition in assay [1] amounted to 79.8%; in assay [3], 0%.
Regarding `O=C(Nc1nc(-c2ccc(F)cc2)c(Cc2ccc([N+](=O)[O-])cc2)s1)c1ccc(O)c(O)c1`, the inhibition in assay [1] amounted to 0%; in assay [2] it was 100%.
As for `O=C(Nc1nc(-c2ccc(O)cc2)c(Cc2ccccc2)s1)c1ccc(Cl)cc1`, the inhibition was determined as 80.4% in assay [1] and 0% in assay [3].

For orientation: inhibition means the drop in the measured response relative to a control, in per cent.
